Measurements reported in US20260262643A1, “HERBICIDAL BENZOXAZINES” (FMC CORPORATION, priority 2022, published 2026).

Key:
[1] = tested on: barnyardgrass; experiment: Test C preemergence; format: in vivo, Echinochloa crusgalli; details: 0 to 100 scale (0 no effect, 100 complete control); for Barnyardgrass plant response rating: preemergence
How it was run: (§1)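 Pre: seeds in loam/sand, directed soil spray. Post: 1–2 leaf plants, 2–10 cm. Cmpd in non-phytotoxic solvent + surfactant. Greenhouse 10 d; visual rating vs untreated, 0 = none, 100 = complete control.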

[2] = tested on: blackgrass; experiment: Test C preemergence; format: in vivo, Alopecurus myosuroides; details: 0 to 100 scale (0 no effect, 100 complete control); for Blackgrass plant response rating: preemergence
How it was run: as §1

[3] = tested on: corn; experiment: Test C preemergence; format: in vivo, Zea mays; details: preemergence, 0 to 100 scale (0 no effect, 100 complete control)
How it was run: as §1

[4] = tested on: green foxtail; experiment: Test C preemergence; format: in vivo, Setaria viridis; details: 0 to 100 scale (0 no effect, 100 complete control); for Foxtail, Green plant response rating: preemergence
How it was run: as §1

[5] = tested on: kochia; experiment: Test C preemergence; format: in vivo, Bassia scoparia; details: 0 to 100 scale (0 no effect, 100 complete control); for Kochia plant response rating: preemergence
How it was run: as §1

[6] = tested on: oat, wild; experiment: Test C preemergence; format: in vivo, Avena fatua; details: 0 to 100 scale (0 no effect, 100 complete control); for Oat, Wild plant response rating: preemergence
How it was run: as §1

[7] = tested on: pigweed, palmer; experiment: Test C preemergence; format: in vivo, Amaranthus palmeri; details: 0 to 100 scale (0 no effect, 100 complete control); for Pigweed, Palmer plant response rating: preemergence
How it was run: as §1

[8] = tested on: ragweed; experiment: Test C preemergence; format: in vivo, Ambrosia artemisiifolia; details: 0 to 100 scale (0 no effect, 100 complete control); for Ragweed plant response rating: preemergence
How it was run: as §1

[9] = tested on: ryegrass, Italian; experiment: Test C preemergence; format: in vivo, Lolium multiflorum; details: 0 to 100 scale (0 no effect, 100 complete control); for Ryegrass, Italian plant response rating: preemergence
How it was run: as §1

[10] = tested on: soybean; experiment: Test C preemergence; format: in vivo, Glycine max; details: 0 to 100 scale (0 no effect, 100 complete control); for Soybean plant response rating: preemergence
How it was run: as §1

[11] = tested on: wheat; experiment: Test C preemergence; format: in vivo, Triticum aestivum; details: 0 to 100 scale (0 no effect, 100 complete control); for Wheat plant response rating: preemergence
How it was run: as §1

[12] = tested on: barnyardgrass; experiment: Test C postemergence; format: in vivo, Echinochloa crusgalli; details: 10 days
How it was run: as §1

[13] = tested on: blackgrass; experiment: Test C postemergence; format: in vivo, Alopecurus myosuroides; details: 10 days
How it was run: as §1

[14] = tested on: corn; experiment: Test C postemergence; format: in vivo, Zea mays; details: 10 days
How it was run: as §1

[15] = tested on: green foxtail; experiment: Test C postemergence; format: in vivo, Setaria viridis; details: 10 days
How it was run: as §1

[16] = tested on: kochia; experiment: Test C postemergence; format: in vivo, Bassia scoparia; details: 10 days
How it was run: as §1

[17] = tested on: oat, wild; experiment: Test C postemergence; format: in vivo, Avena fatua; details: 10 days
How it was run: as §1

[18] = tested on: pigweed, palmer; experiment: Test C postemergence; format: in vivo, Amaranthus palmeri; details: 10 days
How it was run: as §1

[19] = tested on: ragweed; experiment: Test C postemergence; format: in vivo, Ambrosia artemisiifolia; details: 10 days
How it was run: as §1

[20] = tested on: ryegrass, Italian; experiment: Test C postemergence; format: in vivo, Lolium multiflorum; details: 10 days
How it was run: as §1

[21] = tested on: soybean; experiment: Test C postemergence; format: in vivo, Glycine max; details: 10 days
How it was run: as §1

[22] = tested on: wheat; experiment: Test C postemergence; format: in vivo, Triticum aestivum; details: 10 days
How it was run: as §1

[23] = tested on: galium; experiment: Test C postemergence; format: in vivo, Galium aparine; details: 10 days
How it was run: as §1

[24] = tested on: horseweed; experiment: Test C postemergence; format: in vivo, Erigeron canadensis; details: 10 days
How it was run: as §1

[25] = tested on: barnyardgrass; experiment: Test D flooded paddy test; format: in vivo, Echinochloa crus-galli; details: 250 g ai/ha, applied to paddy water, visual rating after 13 to 14 days, scale 0 to 100 (0 no effect, 100 complete control)
How it was run: (§2)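 Plants at the 2-leaf stage were grown in pots flooded to 3 cm, and compound was applied directly into the paddy water, with depth kept throughout. After 13–14 days in a greenhouse, injury was rated visually against untreated controls on a 0–100 scale (100 = complete control); a dash means not tested.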

[26] = tested on: ducksalad; experiment: Test D flooded paddy test; format: in vivo, Heteranthera limosa; details: 250 g ai/ha, applied to paddy water, visual rating after 13 to 14 days, scale 0 to 100 (0 no effect, 100 complete control)
How it was run: as §2

[27] = tested on: rice; experiment: Test D flooded paddy test; format: in vivo, Oryza sativa; details: 250 g ai/ha, applied to paddy water, visual rating after 13 to 14 days, scale 0 to 100 (0 no effect, 100 complete control)
How it was run: as §2

[28] = tested on: sedge, umbrella; experiment: Test D flooded paddy test; format: in vivo, Cyperus difformis; details: 250 g ai/ha, applied to paddy water, visual rating after 13 to 14 days, scale 0 to 100 (0 no effect, 100 complete control)
How it was run: as §2

[29] = Preemergence, 500 g ai/ha, visual rating after 10 days
[30] = 125 g ai/ha, postemergence, 0 to 100 scale, 0 no effect, 100 complete control
[31] = Postemergence, 500 g ai/ha, visual 0 to 100 scale (0 no effect, 100 complete control)
[32] = 500 g ai/ha, postemergence, 0 to 100 scale (0 no effect, 100 complete control)
[33] = Postemergence, 125 g ai/ha, 0 to 100 scale (0 no effect, 100 complete control)

Cc1ccc(-n2cnc(C3(C(F)(F)F)CCC3)n2)cc1C(=O)N1C[C@H](C)Oc2c(Cl)cccc21 [Compound 168]
Barnyardgrass plant response rating ([1]; 125 g ai/ha): 50 | Plant response rating, Barnyardgrass [1, 29]: 70 | Plant response rating, Blackgrass [2, 29]: 60 | Blackgrass plant response rating ([2]; Test C, 125 g ai/ha): 20 | Corn plant response rating ([3]; Test C, 125 g ai/ha): 0 | Plant response rating, Foxtail, Green [4, 29]: 100 | Foxtail, Green plant response rating ([4]; Test C, 125 g ai/ha): 50 | Plant response rating, Kochia [5, 29]: 50 | Kochia plant response rating ([5]; Test C, 125 g ai/ha): 0 | Plant response rating, Oat, Wild [6, 29]: 20 | Oat, Wild plant response rating ([6]; Test C, 125 g ai/ha): 0 | Plant response rating, Pigweed, Palmer [7, 29]: 100 | Pigweed, Palmer plant response rating ([7]; Test C, 125 g ai/ha): 100 | Plant response rating, Ragweed [8, 29]: 60 | Ragweed plant response rating ([8]; Test C, 125 g ai/ha): 30 | Plant response rating, Ryegrass, Italian [9, 29]: 90 | Ryegrass, Italian plant response rating ([9]; Test C, 125 g ai/ha): 70 | Plant response rating, Soybean [10, 29]: 60 | Soybean plant response rating ([10]; Test C, 125 g ai/ha): 60 | Plant response rating, Wheat [11, 29]: 20 | Wheat plant response rating ([11]; Test C, 125 g ai/ha): 0 | Plant response rating, Barnyardgrass [12, 30]: 10 | Plant response rating, Barnyardgrass [12, 31]: 30 | Plant response rating, Blackgrass [13, 30]: 0 | Plant response rating, Blackgrass [13, 31]: 0 | Plant response rating, Corn [14, 30]: 10 | Plant response rating, Corn [14, 31]: 10 | Plant response rating, Foxtail, Green [15, 30]: 20 | Plant response rating, Foxtail, Green [15, 31]: 30 | Plant response rating, Kochia [16, 30]: 80 | Plant response rating, Kochia [16, 31]: 80 | Plant response rating, Oat, Wild [17, 30]: 0 | Plant response rating, Oat, Wild [17, 31]: 0 | Plant response rating, Pigweed, Palmer [18, 30]: 70 | Plant response rating, Pigweed, Palmer [18, 31]: 90 | Plant response rating, Ragweed [19, 30]: 60 | Plant response rating, Ragweed [19, 31]: 70 | Plant response rating, Ryegrass, Italian [20, 30]: 20 | Plant response rating, Ryegrass, Italian [20, 31]: 40 | Plant response rating, Soybean [21, 30]: 100 | Plant response rating, Soybean [21, 31]: 100 | Plant response rating, Wheat [22, 30]: 10 | Plant response rating, Wheat [22, 31]: 20 | Plant response rating, Galium [23, 30]: 80 | Plant response rating, Galium [23, 31]: 90 | Plant response rating, Horseweed [24, 30]: 0 | Plant response rating, Horseweed [24, 31]: 10 | Plant response rating, Barnyardgrass (Flood) [25]: 0 | Plant response rating, Ducksalad (Flood) [26]: 0 | Plant response rating, Rice (Flood) [27]: 0 | Plant response rating, Sedge, Umbrella (Flood) [28]: 0

CC(C)Oc1ncn(-c2cccc(C(=O)N3C[C@H](C)Oc4c(Cl)cccc43)c2)n1 [Compound 312]
Barnyardgrass plant response rating ([1]; 500 g ai/ha): 40 | Barnyardgrass plant response rating ([1]; Test C, 125 g ai/ha): 0 | Blackgrass plant response rating ([2]; 500 g ai/ha): 80 | Blackgrass plant response rating ([2]; Test C, 125 g ai/ha): 50 | Corn plant response rating ([3]; 500 g ai/ha): 10 | Corn plant response rating ([3]; Test C, 125 g ai/ha): 0 | Foxtail, Green plant response rating ([4]; 500 g ai/ha): 90 | Foxtail, Green plant response rating ([4]; Test C, 125 g ai/ha): 80 | Kochia plant response rating ([5]; 500 g ai/ha): 20 | Kochia plant response rating ([5]; Test C, 125 g ai/ha): 0 | Oat, Wild plant response rating ([6]; 500 g ai/ha): 70 | Oat, Wild plant response rating ([6]; Test C, 125 g ai/ha): 0 | Pigweed, Palmer plant response rating ([7]; 500 g ai/ha): 70 | Pigweed, Palmer plant response rating ([7]; Test C, 125 g ai/ha): 20 | Ragweed plant response rating ([8]; 500 g ai/ha): 0 | Ragweed plant response rating ([8]; Test C, 125 g ai/ha): 0 | Ryegrass, Italian plant response rating ([9]; 500 g ai/ha): 80 | Ryegrass, Italian plant response rating ([9]; Test C, 125 g ai/ha): 70 | Soybean plant response rating ([10]; 500 g ai/ha): 10 | Soybean plant response rating ([10]; Test C, 125 g ai/ha): 0 | Wheat plant response rating ([11]; 500 g ai/ha): 10 | Wheat plant response rating ([11]; Test C, 125 g ai/ha): 0 | Plant response rating, Barnyardgrass [12, 32]: 10 | Plant response rating, Barnyardgrass [12, 33]: 10 | Plant response rating, Blackgrass [13, 32]: 40 | Plant response rating, Blackgrass [13, 33]: 0 | Plant response rating, Corn [14, 32]: 10 | Plant response rating, Corn [14, 33]: 10 | Plant response rating, Foxtail, Green [15, 32]: 20 | Plant response rating, Foxtail, Green [15, 33]: 0 | Plant response rating, Kochia [16, 32]: 80 | Plant response rating, Kochia [16, 33]: 20 | Plant response rating, Oat, Wild [17, 32]: 0 | Plant response rating, Oat, Wild [17, 33]: 0 | Plant response rating, Pigweed, Palmer [18, 32]: 50 | Plant response rating, Pigweed, Palmer [18, 33]: 10 | Plant response rating, Ragweed [19, 32]: 40 | Plant response rating, Ragweed [19, 33]: 0 | Plant response rating, Ryegrass, Italian [20, 32]: 30 | Plant response rating, Ryegrass, Italian [20, 33]: 30 | Plant response rating, Soybean [21, 32]: 100 | Plant response rating, Soybean [21, 33]: 80 | Plant response rating, Wheat [22, 32]: 10 | Plant response rating, Wheat [22, 33]: 10 | Plant response rating, Galium [23, 32]: 80 | Plant response rating, Galium [23, 33]: 60 | Plant response rating, Horseweed [24, 32]: 0 | Plant response rating, Horseweed [24, 33]: 0 | Plant response rating, Barnyardgrass (Flood) [25]: 0 | Plant response rating, Ducksalad (Flood) [26]: 0 | Plant response rating, Rice (Flood) [27]: 0 | Plant response rating, Sedge, Umbrella (Flood) [28]: 0
